Reference: ChEMBL document CHEMBL1124722, “Synthesis and anticonvulsant activity of 2-benzylglutarimides” (J Med Chem, 1990)
Active and inactive are the calls of the source. The calls are words filed in the database; no cut-off is given here.

What was measured:
Mus musculus [1] = test: Anticonvulsant activity against maximal electroshock induced seizures after 4 hr; Not active up to 300 mg/kg.; assay type: functional, organism-based; design: dose 300 mg/kg
Mus musculus [2] = test: Anticonvulsant activity against subcutaneous administered Metrazol induced seizures (scMET) after 4 hr; Not active up to 300 mg/kg; assay type: functional, organism-based; design: dose 300 mg/kg
Mus musculus [3] = test: The Neurologic toxicity by measuring rotarod test after 4 hr at 300 mg/kg; Active; assay type: organism-based; design: dose 300 mg/kg; details: in vivo
Mus musculus [4] = test: The Neurologic toxicity by measuring rotarod test after 0.5 hr at 300 mg/kg; Active; assay type: organism-based; design: dose 300 mg/kg; details: in vivo
Mus musculus [5] = test: Anticonvulsant activity against subcutaneous administered Metrazol induced seizures (scMET) after 0.5 hr; Not active up to 300 mg/kg; assay type: functional, organism-based; design: dose 300 mg/kg
Mus musculus [6] = test: Anticonvulsant activity against maximal electroshock induced seizures (MES) after 0.5 h; Not active up to 300 mg/kg; assay type: functional, organism-based; design: dose 300 mg/kg
Mus musculus [7] = test: (§1) The Neurologic toxicity by measuring rotarod test after 4 hr; Not active up to 300 mg/kg; assay type: organism-based; design: dose 300 mg/kg; details: in vivo
Mus musculus [8] = test: (§2) The Neurologic toxicity by measuring rotarod test after 0.5 h; Not active up to 300 mg/kg; assay type: organism-based; design: dose 300 mg/kg; details: in vivo
[9] = The cytotoxicity after intraperitoneal administration; assay type: organism-based; details: mouse, in vivo, ip
Mus musculus [10] = test: Anticonvulsant activity against maximal electroshock induced seizures (MES) after 0.5 hr at 100 mg/kg; Active; assay type: functional, organism-based; design: dose 100 mg/kg
Mus musculus [11] = species: Mus musculus; test: Time of peak effect was determined for toxicity; assay type: organism-based; design: unit not given here; details: in vivo
Mus musculus [12] = species: Mus musculus; test: Time of peak effect was determined for activity in MES; assay type: functional; design: unit not given here
Mus musculus [13] = test: Anticonvulsant activity against subcutaneous administered Metrazol induced seizures (scMET) after 0.5 hr at 300 mg/kg; Active; assay type: functional, organism-based; design: dose 300 mg/kg
Mus musculus [14] = test: The effective dose of compound was tested against subcutaneous administered Metrazol induced seizures after intraperitoneal administration; assay type: functional
[15] = Protective index was calculated (TD50/ED50) in MES assay in mice after intraperitoneal administration; assay type: functional
Mus musculus [16] = test: The effective dose of compound was tested against maximal electroshock induced seizures after intraperitoneal administration; assay type: functional; details: ip
Mus musculus [17] = test: Anticonvulsant activity against subcutaneous administered Metrazol induced seizures (scMET) after 4 hr at 100 mg/kg; Active; assay type: functional, organism-based; design: dose 100 mg/kg
[18] = Protective index was calculated (TD50/ED50) in scMET assay in mice after intraperitoneal administration; assay type: functional
Mus musculus [19] = test: Anticonvulsant activity against subcutaneous administered Metrazol induced seizures (scMET) after 0.5 hr at 100 mg/kg; Active; assay type: functional, organism-based; design: dose 100 mg/kg
Mus musculus [20] = test: Anticonvulsant activity against maximal electroshock induced seizures (MES) after 0.5 hr at 300 mg/kg; Active; assay type: functional, organism-based; design: dose 300 mg/kg
Mus musculus [21] = test: The effective dose of compound was tested against maximal electroshock induced seizures after intraperitoneal administration; no protection up to 1050 mg/kg; assay type: functional, organism-based; design: dose 1050 mg/kg
Mus musculus [22] = test: as §2; assay type: functional, organism-based; design: dose 300 mg/kg
Mus musculus [23] = test: as §1; assay type: functional, organism-based; design: dose 300 mg/kg
Mus musculus [24] = test: Anticonvulsant activity against subcutaneous administered Metrazol induced seizures (scMET) after 0.5 hr at 30 mg/kg; Active; assay type: functional, organism-based; design: dose 30 mg/kg
Mus musculus [25] = test: Anticonvulsant activity against subcutaneous administered Metrazol induced seizures (scMET) after 4 hr at 300 mg/kg; Active; assay type: functional, organism-based; design: dose 300 mg/kg
Mus musculus [26] = species: Mus musculus; test: Time of peak effect activity against maximal electroshock induced seizures; assay type: functional
Mus musculus [27] = species: Mus musculus; test: Time of peak effect toxicity against maximal electroshock induced seizures; assay type: organism-based; details: in vivo
Mus musculus [28] = test: The Neurologic toxicity by measuring rotarod test after 4 hr; No toxicity up to 300 mg/kg; assay type: organism-based; design: dose 300 mg/kg; details: in vivo
Mus musculus [29] = test: Anticonvulsant activity against maximal electroshock induced seizures (MES) after 4 hr at 300 mg/kg; Active; assay type: functional, organism-based; design: dose 300 mg/kg
Mus musculus [30] = test: The Neurologic toxicity by measuring rotarod test after 0.5 h up to 300 mg/kg; assay type: functional, organism-based; design: dose 300 mg/kg
Mus musculus [31] = test: The Neurologic toxicity by measuring rotarod test after 4 hr up to 300 mg/kg; assay type: functional, organism-based; design: dose 300 mg/kg
Mus musculus [32] = test: Anticonvulsant activity against subcutaneous administered Metrazol induced seizures (scMET) after 4 hr up to 300 mg/kg; assay type: functional, organism-based; design: dose 300 mg/kg

Row | Compound | Activity (Mus musculus [1]) | Activity (Mus musculus [2]) | Toxicity (Mus musculus [4]) | Activity (Mus musculus [5]) | Activity (Mus musculus [6]) | Toxicity (Mus musculus [7]) | Toxicity (Mus musculus [8]) | TD50 [9] | TPE (Mus musculus [11]) | TPE (Mus musculus [12]) | ED50 (Mus musculus [14]) | Ratio [15] | ED50 (Mus musculus [16]) | Ratio [18] | Activity (Mus musculus [20]) | further results
1 | CC(C)Oc1ccc(CC2CCC(=O)NC2=O)cc1 (centres undefined) | inactive | inactive | Active | inactive | inactive |  |  |  |  |  |  |  |  |  |  | Toxicity (Mus musculus [3]): Active
2 | CN1C(=O)CCC(Cc2ccccc2)C1=O (centres undefined) | inactive | inactive |  |  | inactive | Not Active | Not Active |  |  |  |  |  |  |  |  | 
3 | CN1C(=O)CCC(Cc2ccccc2Br)C1=O (centres undefined) | inactive |  |  |  |  | Not Active | Not Active | 617 mg/kg | 0.5 | 1 | 256 mg/kg | 1.3 | 474 mg/kg | 2.41 |  | Activity (Mus musculus [10]): Active; Activity (Mus musculus [13]): Active; Activity (Mus musculus [17]): Active
4 | O=C1CCC(Cc2ccc(Cl)c(Cl)c2)C(=O)N1 (centres undefined) | inactive | inactive |  | inactive | inactive | Not Active | Not Active |  |  |  |  |  |  |  |  | 
5 | CN1C(=O)CCC(Cc2ccc(Br)cc2)C1=O (centres undefined) | inactive | inactive |  |  |  | Not Active | Not Active | 534 mg/kg | 1.5 | 1 | 143 mg/kg | 3.8 | 162 mg/kg | 3.72 | Active | Activity (Mus musculus [19]): Active
6 | CN1C(=O)CCC(Cc2ccc(Cl)cc2Cl)C1=O (centres undefined) | inactive |  |  |  | inactive | Not Active | Not Active | 650 mg/kg | 2 | 0.5 | 153 mg/kg |  |  | 4.24 |  | Activity (Mus musculus [19]): Active; ED50 (Mus musculus [21]): no protection up to 1050 mg/kg; Activity (Mus musculus [17]): Active
7 | C[Si](C)(C)c1ccc(CC2CCC(=O)NC2=O)cc1 (centres undefined) | inactive | inactive |  | inactive | inactive |  |  |  |  |  |  |  |  |  |  | Toxicity (Mus musculus [22]): inactive; Toxicity (Mus musculus [23]): inactive
8 | O=C1CCC(Cc2ccc(Br)cc2)C(=O)N1 (centres undefined) |  |  | Active |  |  |  |  | 513 mg/kg |  |  | 56.3 mg/kg | 1.84 | 279 mg/kg | 9.11 | Active | Activity (Mus musculus [24]): Active; Activity (Mus musculus [25]): Active; TPE (Mus musculus [26]): 1; TPE (Mus musculus [27]): 1; Toxicity (Mus musculus [28]): No toxicity up to 300 mg/kg; Activity (Mus musculus [29]): Active
9 | O=C1CCC(Cc2ccccc2Br)C(=O)N1 (centres undefined) | inactive | inactive | Active | inactive | inactive |  |  |  |  |  |  |  |  |  |  | Toxicity (Mus musculus [3]): Active
10 | O=C1CCC(Cc2ccccc2)C(=O)N1 (centres undefined) | inactive |  |  | inactive |  |  |  |  |  |  |  |  |  |  | Active | Toxicity (Mus musculus [30]): inactive; Toxicity (Mus musculus [31]): inactive; Activity (Mus musculus [32]): inactive
11 | O=C1CCC(Cc2ccc(C(F)(F)F)cc2)C(=O)N1 (centres undefined) |  |  | Active |  |  |  |  | 349 mg/kg | 1 | 2 | 119 mg/kg | 2.76 | 126 mg/kg | 2.92 | Active | Activity (Mus musculus [19]): Active; Activity (Mus musculus [25]): Active; Toxicity (Mus musculus [3]): Active; Activity (Mus musculus [29]): Active
